US10377763B2, “Morphinan derivative and medical usage thereof” (UNIVERSITY OF TSUKUBA, priority 2015, dated 2019)
Like-named read-outs stand apart in the source and are kept apart here.

Columns and labels:
human OX1R = human OX1R (Homo sapiens (Human), UniProt O43613); experiment: Measurement of antagonistic activity against orexin receptors (intracellular calcium, CHOOX1R cells); format: cell-based; conditions: for antagonistic activity against human OX1 receptor (in words): summary of Table 6
Chain of human OX1R (O43613 whole entry): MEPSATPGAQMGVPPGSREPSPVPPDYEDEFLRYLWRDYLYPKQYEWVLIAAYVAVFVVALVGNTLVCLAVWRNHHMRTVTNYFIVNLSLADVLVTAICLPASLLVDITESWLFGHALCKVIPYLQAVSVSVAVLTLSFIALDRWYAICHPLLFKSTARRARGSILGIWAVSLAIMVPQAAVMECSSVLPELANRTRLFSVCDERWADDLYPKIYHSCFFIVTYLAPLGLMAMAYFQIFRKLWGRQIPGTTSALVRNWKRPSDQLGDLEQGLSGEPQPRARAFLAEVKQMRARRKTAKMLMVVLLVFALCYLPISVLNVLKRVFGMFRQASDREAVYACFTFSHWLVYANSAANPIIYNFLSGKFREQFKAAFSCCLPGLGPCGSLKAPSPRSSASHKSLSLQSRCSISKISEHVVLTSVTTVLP
Procedure: (§1) The Chinese hamster ovary (CHO) cell lines CHOOX1R and CHOOX2R were established by modifying CHO cells to constantly express the NFAT-luciferase gene and either the human OX1R or human OX2R gene. Those cells were plated at 10,000 cells/well in 96-well multiplates with DMEM (manufactured by Sigma-Aldrich Co. LLC) supplemented with 5% FBS (manufactured by Thermo Scientific Inc.) and incubated at 37° C. and 5% CO2 for 48 hours. After removal of the medium, 100 μL of an assay buffer (20 mM HEPES (manufactured by Sigma-Aldrich Co. LLC), Hank's balanced salt solution (manufactured by Gibco), 0.1% BSA (manufactured by Sigma-Aldrich Co. LLC), 2.5 mM probenecid acid (manufactured by Wako Pure Chemical Industries, Ltd.), pH 7.4) containing 5 μM Fura-2AM (manufactured by Cayman Chemical Co.) was added to each well, and incubated at 37° C. and 5% CO2 for 60 minutes. After removal of the buffer containing Fura-2AM, 75 μL of the assay buffer was added to each well. Then, […] of the assay buffer containing a test compound at various concentrations and OX-A (manufactured by Peptide Institute, Inc.) was added to start the reaction. The change in intracellular calcium ion concentration induced by the reaction was evaluated by the ratio of fluorescent intensities, which were measured at a wavelength of 510 nm based on the two wavelength excitation approach using FDSS 7000 (manufactured by Hamamatsu Photonics K.K.) with fluorescence excitation at 340 nm and 380 nm. A concentration-response curve on the antagonistic activity was plotted from the values of maximal fluorescent intensity ratio determined when various concentrations of a test compound were added in the presence of […] of OX-A, where a value of maximal fluorescent intensity ratio determined by adding 300 pM of OX-A alone corresponds to 100% and a value of maximal fluorescent intensity ratio determined by adding the assay buffer alone corresponds to 0%. Based on the resulting non-linear regression curve, the 50% maximal inhibitory concentration (IC50) was calculated. Each test compound was dissolved in DMSO to a concentration of 10 mM (the final concentration of DMSO was 1%), and then diluted with the assay buffer to give a final concentration of 3.0×10^−10 M to 1.0×10^−5 M (a common ratio of 3), while OX-A was diluted to a final concentration of 300 pM. The experiment was performed in quadruplicate plates, and the results of the four independent measurements were averaged to give the value of each reaction, and then the IC50 of a sample was calculated. If the sample number was 2 or more, the averaged IC50 was used.

human OX2R = human OX2R (Homo sapiens (Human), UniProt O43614); experiment: Measurement of antagonistic activity against orexin receptors (intracellular calcium, CHOOX2R cells); format: cell-based
Chain of human OX2R (O43614 whole entry): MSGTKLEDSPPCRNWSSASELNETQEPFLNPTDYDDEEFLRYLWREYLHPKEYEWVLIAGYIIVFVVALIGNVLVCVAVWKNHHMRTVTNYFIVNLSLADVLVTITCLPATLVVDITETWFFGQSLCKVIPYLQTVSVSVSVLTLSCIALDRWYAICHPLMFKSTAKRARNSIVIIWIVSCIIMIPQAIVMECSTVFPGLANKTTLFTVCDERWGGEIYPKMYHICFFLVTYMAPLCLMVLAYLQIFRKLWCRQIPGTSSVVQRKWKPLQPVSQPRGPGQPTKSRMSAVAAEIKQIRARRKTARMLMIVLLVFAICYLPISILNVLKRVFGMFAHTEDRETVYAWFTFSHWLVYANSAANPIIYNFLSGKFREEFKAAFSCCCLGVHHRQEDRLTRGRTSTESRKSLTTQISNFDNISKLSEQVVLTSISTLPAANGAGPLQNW
Procedure: as §1

[1] = CHOOX1R cells, 300 pM OX-A, Fura-2 calcium, read-out: OX1 (IC50)
[2] = CHOOX2R cells, 300 pM OX-A, Fura-2 calcium, read-out: OX2 (IC50)

Row | SMILES | IC50 (human OX1R; [1]) [nM] | antagonistic activity against human OX1 receptor (in words) (human OX1R) | IC50 (human OX2R; [2]) [nM] | IC50 (human OX1R) [nM] | IC50 (human OX2R) [nM]
1 | COc1ccc2c3c1O[C@H]1[C@H](N(C)C(=O)/C=C/c4ccoc4)CC[C@@]4(O)[C@@H](C2)N(S(=O)(=O)c2cccc(F)c2)CC[C@]314 [Example 15] | 112 | potent and selective antagonistic activity | > 10000 | – | –
2 | COc1ccc2c3c1O[C@H]1[C@H](N(C)C(=O)/C=C/c4ccoc4)CC[C@@]4(O)[C@@H](C2)N(C(=O)C2CC2)CC[C@]314 [Example 34] | 259 | potent and selective antagonistic activity | > 10000 | – | –
3 | COc1ccc2c3c1O[C@H]1[C@H](N(C)C(=O)Nc4ccccc4)CC[C@@]4(O)[C@@H](C2)N(S(=O)(=O)c2ccccc2)CC[C@]314 [Example 41] | 159 | potent and selective antagonistic activity | > 10000 | – | –
4 | COc1ccc2c3c1O[C@H]1[C@H](N(C)C(=O)C=Cc4ccccc4)CC[C@@]4(O)[C@@H](C2)N(S(=O)(=O)c2ccccc2)CC[C@]314 [Example 38, N-[(4R,4aS,7R,7aR,12bS)-4a-hydroxy-9-methoxy-3-(phenylsulfonyl)-2,3,4,4a,5,6,7,7a-octahydro-1H-4,12-methanobenzofuro[3,2-e]isoquinolin-7-yl]-N-methylcinnamide] | 128 | potent and selective antagonistic activity | > 10000 | – | –
5 | COc1ccc2c3c1O[C@H]1[C@H](N(C)C(=O)/C=C/c4ccoc4)CC[C@@]4(O)[C@@H](C2)N(S(=O)(=O)c2cccc5cccnc25)CC[C@]314 [Example 25] | 198 | potent and selective antagonistic activity | > 10000 | – | –
6 | COc1ccc2c3c1O[C@H]1[C@H](N(C)C(=O)/C=C/c4ccoc4)CC[C@@]4(O)[C@@H](C2)N(S(=O)(=O)c2ccccc2[N+](=O)[O-])CC[C@]314 [Example 8] | 144 | potent and selective antagonistic activity | > 10000 | – | –
7 | COc1ccc2c3c1O[C@H]1[C@H](N(C)C(=O)NCc4ccccc4)CC[C@@]4(O)[C@@H](C2)N(S(=O)(=O)c2ccccc2)CC[C@]314 [Example 42] | 688 | potent and selective antagonistic activity | > 10000 | – | –
8 | COc1ccc2c3c1O[C@H]1[C@H](N(C)C(=O)/C=C/c4ccoc4)CC[C@@]4(O)[C@@H](C2)N(C(=O)c2ccc(C)cc2)CC[C@]314 [Example 35] | 571 | potent and selective antagonistic activity | > 10000 | – | –
9 | COc1ccc2c3c1O[C@H]1[C@H](N(C)Cc4ccccc4)CC[C@@]4(O)[C@@H](C2)N(C(=O)OC(C)(C)C)CC[C@]314 [Comparative Example 2, tert-butyl(4R,4aS,7R,7aR,12bS)-7-[benzyl(methyl)amino]-4a-hydroxy-9-methoxy-1,2,4,4a,5,6,7,7a-octahydro-3H-4,12-methanobenzofuro[3,2-e]isoquinolin-3-carboxylate, reference compound] | 2850 | very weak antagonistic activity | > 10000 | – | –
10 | CCCCS(=O)(=O)N1CC[C@]23c4c5ccc(OC)c4O[C@H]2[C@H](N(C)C(=O)/C=C/c2ccoc2)CC[C@@]3(O)[C@H]1C5 [Example 27] | 87.8 | potent and selective antagonistic activity | > 10000 | – | –
11 | COc1ccc2c3c1O[C@H]1[C@H](N(C)C(=O)/C=C/c4ccoc4)CC[C@@]4(O)[C@@H](C2)N(S(=O)(=O)c2cccc(Br)c2)CC[C@]314 [Example 21] | 200 | potent and selective antagonistic activity | > 10000 | – | –
12 | CN(C(=O)/C=C/c1ccoc1)[C@@H]1CC[C@@]2(O)[C@H]3Cc4ccc(O)c5c4[C@@]2(CCN3CC2CC2)[C@H]1O5.Cl [Comparative Example 1, (E)-N-[(4R,4aS,7R,7aR,12bS)-3-(cyclopropylmethyl)-4a,9-dihydroxy-2,3,4,4a,5,6,7,7a-octahydro-1H-4,12-methanobenzofuro[3,2-e]isoquinolin-7-yl]-3-(furan-3-yl)-N-methylacrylamide hydrochloride, reference compound] | 1650 | very weak antagonistic activity | > 10000 | – | –
13 | COc1ccc2c3c1O[C@H]1[C@H](N(C)C(=O)/C=C/c4ccoc4)CC[C@@]4(O)[C@@H](C2)N(S(=O)(=O)c2ccccc2C)CC[C@]314 [Example 2] | 30 | potent and selective antagonistic activity | > 10000 | – | –
14 | COc1ccc2c3c1O[C@H]1[C@H](N(C)C(=O)/C=C/c4ccoc4)CC[C@@]4(O)[C@@H](C2)N(S(=O)(=O)c2ccc(N(C)C)cc2)CC[C@]314.Cl [Example 32] | 11.7 | potent and selective antagonistic activity | > 10000 | – | –
15 | COc1ccc2c3c1O[C@H]1[C@H](N(C)C(=O)/C=C/c4ccoc4)CC[C@@]4(O)[C@@H](C2)N(S(=O)(=O)C2CC2)CC[C@]314 [Example 28] | 101 | potent and selective antagonistic activity | > 10000 | – | –
16 | COc1ccc2c3c1O[C@H]1[C@H](N(C)C(=O)/C=C/c4ccoc4)CC[C@@]4(O)[C@@H](C2)N(S(=O)(=O)c2ccccc2C#N)CC[C@]314 [Example 11] | 49.1 | potent and selective antagonistic activity | > 10000 | – | –
17 | COc1ccc2c3c1O[C@H]1[C@H](N(C)C(=O)/C=C/c4ccoc4)CC[C@@]4(O)[C@@H](C2)N(S(=O)(=O)c2ccccc2)CC[C@]314 [Example 1, (E)-3-(furan-3-yl)-N-[(4R,4aS,7R,7aR,12bS)-4a-hydroxy-9-methoxy-3-(phenylsulfonyl)-2,3,4,4a,5,6,7,7a-octahydro-1H-4,12-methanobenzofuro[3,2-e]isoquinolin-7-yl]-N-methylacrylamide] | – | potent and selective antagonistic activity | – | 82.8 | > 10000
18 | COc1ccc2c3c1O[C@H]1[C@H](N(C)C(=O)/C=C/c4ccoc4)CC[C@@]4(O)[C@@H](C2)N(S(=O)(=O)c2ccccc2C(F)(F)F)CC[C@]314 [Example 5] | 419 | potent and selective antagonistic activity | > 10000 | – | –
19 | COc1ccc2c3c1O[C@H]1[C@H](N(C)C(=O)/C=C/c4ccoc4)CC[C@@]4(O)[C@@H](C2)N(S(=O)(=O)c2c(C)cc(C)cc2C)CC[C@]314 [Example 23] | 121 | potent and selective antagonistic activity | > 10000 | – | –
20 | COc1ccc2c3c1O[C@H]1[C@H](N(C)C(=O)/C=C/c4ccoc4)CC[C@@]4(O)[C@@H](C2)N(S(=O)(=O)c2cccc(C)c2)CC[C@]314 [Example 3] | 24 | potent and selective antagonistic activity | > 10000 | – | –
21 | COc1ccc2c3c1O[C@H]1[C@H](N(C)C(=O)/C=C/c4ccoc4)CC[C@@]4(O)[C@@H](C2)N(S(=O)(=O)c2cccc(Cl)c2)CC[C@]314 [Example 18] | 195 | potent and selective antagonistic activity | > 10000 | – | –
22 | COc1ccc2c3c1O[C@H]1[C@H](N(C)C(=O)/C=C/c4ccoc4)CC[C@@]4(O)[C@@H](C2)N(S(=O)(=O)c2ccc(C)cc2)CC[C@]314 [Example 4] | 162 | potent and selective antagonistic activity | > 10000 | – | –
23 | COc1ccc2c3c1O[C@H]1[C@H](N(C)C(=O)/C=C/c4ccoc4)CC[C@@]4(O)[C@@H](C2)N(S(=O)(=O)c2ccccc2Br)CC[C@]314 [Example 20] | 56.2 | potent and selective antagonistic activity | > 10000 | – | –
